{"source": "patent US20250230511A1", "about": "“METHODS AND REAGENTS FOR […] VECTOR NUCLEIC ACID PRODUCTS” (Sana Biotechnology, Inc., priority 2021, published 2025)", "key": {"[1]": {"system": "VSV-G pseudotyped lentiviral vector (VG)", "type": "cell-based"}, "[2]": {"system": "VSV-G pseudotyped lentiviral vector (VG)", "type": "cell-based", "remark": "listed apart in the source"}}, "data": [{"smiles": "Cc1ccnc2c1NC(=O)c1cccnc1N2C1CC1", "note": "[Nevirapine]", "values": [{"measurement": "determination of VCN based on assay of the WPRE amplicon", "setting": "[1]", "result": "not substantially impacted"}, {"measurement": "determination of VCN based on assay of the DelU3 amplicon", "setting": "[2]", "result": "completely ablated"}]}]}
